Assay results published in publication PMC5218480 (PLoS ONE, 2017).

Test system: MV-4-11 cells
Test: Gene expression microarray analysis (Affymetrix PrimeView) and GSEA
Assay type: cell-based, human
Set-up: RFU PODN (11730768_x_at) / Fold change /veh PODN (11730768_x_at) / RFU LINC00158 (11744669_a_at) / Fold change /veh LINC00158 (11744669_a_at) / RFU DUSP10 (11751237_a_at) / Fold change /veh DUSP10 (11751237_a_at) / RFU ID3 (11757404_x_at) / Fold change /veh ID3 (11757404_x_at) / RFU PLEKHG5 (11737974_s_at) / Fold change /veh PLEKHG5 (11737974_s_at) / RFU LRRC4B (11730491_at) / Fold change /veh LRRC4B (11730491_at) / RFU GIMAP4 (11747438_a_at) / Fold change /veh GIMAP4 (11747438_a_at) / RFU KRT8 (11758183_x_at) / Fold change /veh KRT8 (11758183_x_at) / RFU CNN1 (11734310_a_at) / Fold change /veh CNN1 (11734310_a_at) / RFU VPS37D (11726825_at) / Fold change /veh VPS37D (11726825_at) / RFU C10orf10 (11716522_x_at) / Fold change /veh C10orf10 (11716522_x_at) / RFU KIR2DL2 /// KIR2DL4 /// KIR2DL5A /// KIR2DL5B /// KIR2DS1 /// KIR2DS2 /// KIR2DS3 /// KIR2DS4 /// KIR3DL3 /// KIR3DL3 /// KIR3DS1 (11738374_at) / Fold change /veh KIR2DL2 /// KIR2DL4 /// KIR2DL5A /// KIR2DL5B /// KIR2DS1 /// KIR2DS2 /// KIR2DS3 /// KIR2DS4 /// KIR3DL3 /// KIR3DL3 /// KIR3DS1 (11738374_at) / RFU C1QL1 (11718748_at) / Fold change /veh C1QL1 (11718748_at) / RFU TMPRSS4 (11747572_a_at) / Fold change /veh TMPRSS4 (11747572_a_at) / RFU HAMP (11756126_x_at) / Fold change /veh HAMP (11756126_x_at) / RFU RNFT2 (11725882_a_at) / Fold change /veh RNFT2 (11725882_a_at) / RFU NR4A2 (11747474_a_at) / Fold change /veh NR4A2 (11747474_a_at) / RFU ABCC12 (11746883_a_at) / Fold change /veh ABCC12 (11746883_a_at) / RFU TMEM136 (11760407_x_at) / Fold change /veh TMEM136 (11760407_x_at) / RFU CLDN22 /// WWC2 (11732394_at) / Fold change /veh CLDN22 /// WWC2 (11732394_at) / RFU HLA-DPB1 (11760878_x_at) / Fold change /veh HLA-DPB1 (11760878_x_at) / RFU SPINT1 (11716480_a_at) / Fold change /veh SPINT1 (11716480_a_at) / RFU GAP43 (11754022_s_at) / Fold change /veh GAP43 (11754022_s_at) / RFU A4GNT (11735810_at) / Fold change /veh A4GNT (11735810_at) / RFU PRB3 (11715151_x_at) / Fold change /veh PRB3 (11715151_x_at) / RFU TUBB4B (11761932_at) / Fold change /veh TUBB4B (11761932_at) / RFU CAPN14 (11732068_a_at) / Fold change /veh CAPN14 (11732068_a_at) / RFU TMCC2 (11721928_a_at) / Fold change /veh TMCC2 (11721928_a_at) / RFU IRGQ (11745062_a_at) / Fold change /veh IRGQ (11745062_a_at) / RFU FAM174B (11720279_a_at) / Fold change /veh FAM174B (11720279_a_at) / RFU TMPRSS4 (11748680_a_at) / Fold change /veh TMPRSS4 (11748680_a_at) / RFU FAM212B (11763350_a_at) / Fold change /veh FAM212B (11763350_a_at) / RFU PLEKHG5 (11743358_a_at) / Fold change /veh PLEKHG5 (11743358_a_at) / RFU ZSCAN30 (11745921_a_at) / Fold change /veh ZSCAN30 (11745921_a_at) / RFU CMKLR1 (11741424_a_at) / Fold change /veh CMKLR1 (11741424_a_at) / RFU LOC101060620 /// MAPK8IP1 (11723275_at) / Fold change /veh LOC101060620 /// MAPK8IP1 (11723275_at) / RFU SPTSSB (11747773_x_at) / Fold change /veh SPTSSB (11747773_x_at) / RFU PRSS12 (11739890_at) / Fold change /veh PRSS12 (11739890_at) / RFU BIN1 (11741810_x_at) / Fold change /veh BIN1 (11741810_x_at) / RFU WNT11 (11732464_a_at) / Fold change /veh WNT11 (11732464_a_at) / RFU C10orf10 (11716521_a_at) / Fold change /veh C10orf10 (11716521_a_at) / RFU C5orf56 (11738089_at) / Fold change /veh C5orf56 (11738089_at) / RFU CYB561 (11721691_x_at) / Fold change /veh CYB561 (11721691_x_at) / RFU ANKRD19P (11752326_a_at) / Fold change /veh ANKRD19P (11752326_a_at) / RFU OR2T12 /// OR2T33 /// OR2T8 (11738714_s_at) / Fold change /veh OR2T12 /// OR2T33 /// OR2T8 (11738714_s_at) / RFU VCAN (11748164_a_at) / Fold change /veh VCAN (11748164_a_at) / RFU JSRP1 (11732532_at) / Fold change /veh JSRP1 (11732532_at) / RFU KRTAP10-11 (11738290_x_at) / Fold change /veh KRTAP10-11 (11738290_x_at) / RFU MYO3A (11730013_a_at) / Fold change /veh MYO3A (11730013_a_at) / RFU EBF3 (11725865_a_at) / Fold change /veh EBF3 (11725865_a_at) / RFU CAMK2N1 (11719241_x_at) / Fold change /veh CAMK2N1 (11719241_x_at) / RFU C5orf56 (11738088_a_at) / Fold change /veh C5orf56 (11738088_a_at) / RFU OLFML3 (11715873_a_at) / Fold change /veh OLFML3 (11715873_a_at) / RFU LOC100653217 /// NTM (11731650_a_at) / Fold change /veh LOC100653217 /// NTM (11731650_a_at) / RFU MAPK11 (11762145_a_at) / Fold change /veh MAPK11 (11762145_a_at) / RFU FIZ1 (11724087_x_at) / Fold change /veh FIZ1 (11724087_x_at) / RFU OASL (11726364_x_at) / Fold change /veh OASL (11726364_x_at) / RFU SOX15 (11748057_x_at) / Fold change /veh SOX15 (11748057_x_at) / RFU CD79A (11719716_a_at) / Fold change /veh CD79A (11719716_a_at) / RFU HIST1H1D (11736915_at) / Fold change /veh HIST1H1D (11736915_at) / RFU CASKIN2 (11723855_a_at) / Fold change /veh CASKIN2 (11723855_a_at) / RFU LOC730098 (11760151_x_at) / Fold change /veh LOC730098 (11760151_x_at) / RFU OR4N2 (11742367_at) / Fold change /veh OR4N2 (11742367_at) / RFU PRRT2 (11749266_a_at) / Fold change /veh PRRT2 (11749266_a_at) / RFU SNX32 (11753110_a_at) / Fold change /veh SNX32 (11753110_a_at) / RFU CDHR5 (11726645_a_at) / Fold change /veh CDHR5 (11726645_a_at) / RFU RCAN1 (11760418_a_at) / Fold change /veh RCAN1 (11760418_a_at) / RFU FAM167A (11723789_a_at) / Fold change /veh FAM167A (11723789_a_at) / RFU FAM26E (11764081_at) / Fold change /veh FAM26E (11764081_at) / RFU ISYNA1 (11749810_s_at) / Fold change /veh ISYNA1 (11749810_s_at) / RFU ACY1 (11761880_at) / Fold change /veh ACY1 (11761880_at) / RFU 11764098_at / Fold change /veh 11764098_at / RFU SAMD14 (11745864_x_at) / Fold change /veh SAMD14 (11745864_x_at) / RFU NPB (11741838_a_at) / Fold change /veh NPB (11741838_a_at) / RFU TMPRSS6 (11731388_a_at) / Fold change /veh TMPRSS6 (11731388_a_at) / RFU KRTAP10-2 (11738614_at) / Fold change /veh KRTAP10-2 (11738614_at) / RFU ARHGAP8 /// PRR5-ARHGAP8 (11727945_x_at) / Fold change /veh ARHGAP8 /// PRR5-ARHGAP8 (11727945_x_at) / RFU KRTAP5-7 /// NADSYN1 (11734609_at) / Fold change /veh KRTAP5-7 /// NADSYN1 (11734609_at) / RFU RASL12 (11751679_a_at) / Fold change /veh RASL12 (11751679_a_at) / RFU CDKN2B (11736163_a_at) / Fold change /veh CDKN2B (11736163_a_at) / RFU PRF1 (11729649_at) / Fold change /veh PRF1 (11729649_at) / RFU, ZNF638 /// ZNF638-IT1 / Fold change vs veh, ZNF638 /// ZNF638-IT1 / RFU, PANK3 / Fold change vs veh, PANK3 / RFU, SH3YL1 / Fold change vs veh, SH3YL1 / RFU, ZEB2 / Fold change vs veh, ZEB2 / RFU, NRIP1 / Fold change vs veh, NRIP1 / RFU, PTTG1IP / Fold change vs veh, PTTG1IP / RFU, CAPN2 / Fold change vs veh, CAPN2 / RFU, MED14 / Fold change vs veh, MED14 / RFU, SNORA58 / Fold change vs veh, SNORA58 / RFU, C1orf63 / Fold change vs veh, C1orf63 / RFU, LRRFIP1 / Fold change vs veh, LRRFIP1 / RFU, NDUFAF7 / Fold change vs veh, NDUFAF7 / RFU, SLC12A2 / Fold change vs veh, SLC12A2 / RFU, IBTK / Fold change vs veh, IBTK / RFU, ESF1 / Fold change vs veh, ESF1 / Fold change vs veh, TMEM50B / RFU, TAOK1 / Fold change vs veh, TAOK1 / RFU, ACBD3 / Fold change vs veh, ACBD3 / RFU, TMA16 / Fold change vs veh, TMA16 / RFU, RWDD3 / Fold change vs veh, RWDD3 / RFU, BCAT1 / Fold change vs veh, BCAT1 / RFU, EDEM3 / Fold change vs veh, EDEM3 / RFU, TMEM33 / Fold change vs veh, TMEM33 / RFU, WDR75 / Fold change vs veh, WDR75 / RFU, AHCTF1 / Fold change vs veh, AHCTF1 / RFU, TFRC / Fold change vs veh, TFRC / RFU, ZDHHC17 / Fold change vs veh, ZDHHC17 / RFU, NOM1 / Fold change vs veh, NOM1 / RFU, ARL8B / Fold change vs veh, ARL8B / RFU, ZBTB11 / Fold change vs veh, ZBTB11 / RFU, TAMM41 / Fold change vs veh, TAMM41 / RFU, KIAA1704 /// LOC100996395 / Fold change vs veh, KIAA1704 /// LOC100996395 / RFU, ING1 / Fold change vs veh, ING1 / RFU, TRMT61B / Fold change vs veh, TRMT61B / RFU, FUBP3 / Fold change vs veh, FUBP3 / RFU, TP53 / Fold change vs veh, TP53 / RFU, TNKS2 / Fold change vs veh, TNKS2 / RFU, ZFP14 / Fold change vs veh, ZFP14 / RFU, ACTR2 / Fold change vs veh, ACTR2 / RFU, PPP3R1 / Fold change vs veh, PPP3R1 / RFU, PIK3R1 / Fold change vs veh, PIK3R1 / RFU, HNRNPA1 / Fold change vs veh, HNRNPA1 / RFU, RNF170 / Fold change vs veh, RNF170 / RFU, ZNF28 / Fold change vs veh, ZNF28 / RFU, RNGTT / Fold change vs veh, RNGTT / RFU, OGT / Fold change vs veh, OGT / RFU, BRD1 / Fold change vs veh, BRD1 / RFU, MARS / Fold change vs veh, MARS / RFU, ZNF655 / Fold change vs veh, ZNF655 / RFU, FAHD1 / Fold change vs veh, FAHD1 / RFU, BDP1 / Fold change vs veh, BDP1 / RFU, LRRCC1 / Fold change vs veh, LRRCC1 / RFU, ARID1A / Fold change vs veh, ARID1A / RFU, ZNF146 / Fold change vs veh, ZNF146 / RFU, ZNF330 / Fold change vs veh, ZNF330 / RFU, GPN3 / Fold change vs veh, GPN3 / RFU, C9orf123 / Fold change vs veh, C9orf123 / RFU, N4BP2L2 / Fold change vs veh, N4BP2L2 / RFU, ARFIP1 / Fold change vs veh, ARFIP1 / RFU, FAM179B / Fold change vs veh, FAM179B / RFU, BCL10 / Fold change vs veh, BCL10 / RFU, UHRF1BP1L / Fold change vs veh, UHRF1BP1L / RFU, BET1 / Fold change vs veh, BET1 / RFU, CNOT2 / Fold change vs veh, CNOT2 / RFU, ZNF268 / Fold change vs veh, ZNF268 / Fold change vs veh, ZNF507 / RFU, DGCR2 / Fold change vs veh, DGCR2 / RFU, WDSUB1 / Fold change vs veh, WDSUB1 / Fold change vs veh, HSP90B1 /// MIR3652 / RFU, ADSS / Fold change vs veh, ADSS / RFU, GK / Fold change vs veh, GK / RFU, ZNF148 / Fold change vs veh, ZNF148 / RFU, TAF9 / Fold change vs veh, TAF9 / RFU, SLC1A5 / Fold change vs veh, SLC1A5 / RFU, SLMO2 / Fold change vs veh, SLMO2 / RFU, ABCC4 / Fold change vs veh, ABCC4 / RFU, LOC101060439 /// RAP1B / Fold change vs veh, LOC101060439 /// RAP1B / RFU, RFX7 / Fold change vs veh, RFX7 / RFU, GTPBP10 / Fold change vs veh, GTPBP10 / RFU, CNEP1R1 / Fold change vs veh, CNEP1R1 / RFU, BIVM-ERCC5 /// ERCC5 / Fold change vs veh, BIVM-ERCC5 /// ERCC5 / RFU, ILF3 / Fold change vs veh, ILF3 / RFU 11762660_at / Fold change /veh 11762660_at / RFU VCAN (11757783_s_at) / Fold change /veh VCAN (11757783_s_at) / RFU DDX43 (11728927_at) / Fold change /veh DDX43 (11728927_at) / RFU KRT8 (11758188_x_at) / Fold change /veh KRT8 (11758188_x_at) / RFU NKD1 (11759106_at) / Fold change /veh NKD1 (11759106_at) / RFU SRD5A1 (11742802_a_at) / Fold change /veh SRD5A1 (11742802_a_at) / RFU TPSAB1 /// TPSB2 (11721975_s_at) / Fold change /veh TPSAB1 /// TPSB2 (11721975_s_at) / RFU GSTM3 (11746129_a_at) / Fold change /veh GSTM3 (11746129_a_at) / RFU IL23R (11737362_x_at) / Fold change /veh IL23R (11737362_x_at) / RFU TMEM51 (11727254_a_at) / Fold change /veh TMEM51 (11727254_a_at) / RFU PIWIL2 (11732686_x_at) / Fold change /veh PIWIL2 (11732686_x_at) / RFU ORM1 (11744905_x_at) / Fold change /veh ORM1 (11744905_x_at) / RFU CCDC152 (11743942_at) / Fold change /veh CCDC152 (11743942_at) / RFU ECM1 (11717891_a_at) / Fold change /veh ECM1 (11717891_a_at) / RFU IL23R (11748794_a_at) / Fold change /veh IL23R (11748794_a_at) / RFU TNFAIP8L3 (11732012_x_at) / Fold change /veh TNFAIP8L3 (11732012_x_at) / RFU MBOAT4 (11741988_at) / Fold change /veh MBOAT4 (11741988_at) / RFU 11764193_at / Fold change /veh 11764193_at / RFU TMEM53 (11763286_at) / Fold change /veh TMEM53 (11763286_at) / RFU MAGEB2 (11727129_at) / Fold change /veh MAGEB2 (11727129_at) / RFU TMEM200A (11744735_a_at) / Fold change /veh TMEM200A (11744735_a_at) / RFU CCDC152 (11751479_a_at) / Fold change /veh CCDC152 (11751479_a_at) / RFU FAM211A (11726209_a_at) / Fold change /veh FAM211A (11726209_a_at) / RFU RGS16 (11746705_a_at) / Fold change /veh RGS16 (11746705_a_at) / RFU VCAN (11755009_s_at) / Fold change /veh VCAN (11755009_s_at) / RFU RHOB (11743442_s_at) / Fold change /veh RHOB (11743442_s_at) / RFU RGS16 (11720943_a_at) / Fold change /veh RGS16 (11720943_a_at) / RFU RGS16 (11720944_at) / Fold change /veh RGS16 (11720944_at) / RFU, VPS4B / Fold change vs veh, VPS4B / RFU, CREB1 / Fold change vs veh, CREB1 / RFU, DNAJC13 / Fold change vs veh, DNAJC13 / RFU, GNAQ / Fold change vs veh, GNAQ / RFU, CDK5R1 / Fold change vs veh, CDK5R1 / RFU, ZRANB3 / Fold change vs veh, ZRANB3 / RFU, CUL4A / Fold change vs veh, CUL4A / RFU, CCNY / Fold change vs veh, CCNY / RFU, UFL1 / Fold change vs veh, UFL1 / RFU, COG3 / Fold change vs veh, COG3 / RFU, DIAPH2 / Fold change vs veh, DIAPH2 / RFU, SKA2 / Fold change vs veh, SKA2 / RFU, AFF3 / Fold change vs veh, AFF3 / RFU, LMF1 / Fold change vs veh, LMF1 / RFU, IPO11 / Fold change vs veh, IPO11 / RFU, DFFB / Fold change vs veh, DFFB / RFU, FOXP1 / Fold change vs veh, FOXP1 / RFU, CARD8 / Fold change vs veh, CARD8 / RFU, STRN3 / Fold change vs veh, STRN3 / RFU, ADK / Fold change vs veh, ADK / RFU, RASSF2 / Fold change vs veh, RASSF2 / RFU, WIPF1 / Fold change vs veh, WIPF1 / RFU, LARP1B / Fold change vs veh, LARP1B / RFU, RASA1 / Fold change vs veh, RASA1 / RFU, RB1 / Fold change vs veh, RB1 / RFU, PPFIA1 / Fold change vs veh, PPFIA1 / RFU, MAT2A / Fold change vs veh, MAT2A / RFU, CCT5 / Fold change vs veh, CCT5 / RFU, WDR92 / Fold change vs veh, WDR92 / RFU, CUX1 / Fold change vs veh, CUX1 / RFU, TTC7A / Fold change vs veh, TTC7A / RFU, TMEM135 / Fold change vs veh, TMEM135 / RFU, DEPTOR / Fold change vs veh, DEPTOR / RFU, CPM / Fold change vs veh, CPM / RFU, DNAJB6 / Fold change vs veh, DNAJB6 / RFU, CACNA2D3 / Fold change vs veh, CACNA2D3 / RFU, DTX4 / Fold change vs veh, DTX4 / RFU, TFCP2 / Fold change vs veh, TFCP2 / RFU, GMCL1 /// GMCL1P1 / Fold change vs veh, GMCL1 /// GMCL1P1 / RFU, AEBP2 / Fold change vs veh, AEBP2 / RFU, SNHG1 /// SNORD22 /// SNORD25 /// SNORD26 /// SNORD27 /// SNORD28 /// SNORD29 /// SNORD31 / Fold change vs veh, SNHG1 /// SNORD22 /// SNORD25 /// SNORD26 /// SNORD27 /// SNORD28 /// SNORD29 /// SNORD31 / Fold change (Aza/veh), C12orf56 (ProbeSet 11735607_a_at) / Fold change (ACY-1035/veh), C12orf56 (ProbeSet 11735607_a_at) / Fold change (Aza/veh), FGFR1OP (ProbeSet 11751329_s_at) / Fold change (ACY-1035/veh), FGFR1OP (ProbeSet 11751329_s_at) / Fold change (Aza/veh), VPS36 (ProbeSet 11739960_a_at) / Fold change (ACY-1035/veh), VPS36 (ProbeSet 11739960_a_at) / RFU SYPL1 (11715823_x_at) / Fold change /veh SYPL1 (11715823_x_at) / RFU IGFBP7 (11715501_s_at) / Fold change /veh IGFBP7 (11715501_s_at) / RFU REEP3 (11722064_at) / Fold change /veh REEP3 (11722064_at) / RFU IGLL1 (11728026_x_at) / Fold change /veh IGLL1 (11728026_x_at): dose or concentration left out as unconfirmed
Settings: ProbeSet 11722302_a_at; LIST B

Nc1ccc(-c2cccs2)cc1NC(=O)c1ccc2c(c1)cc(C1CC1)n2CCN1CCOCC1 [ACY-1035]
RFU, LRRFIP1: 143.54 RFU
